Assay results reported in patent US9833497B2, “Human originated EGF domain proteins and use of the same” (CHENGDU SOURCEBIO LIMITED-LIABILITY COMPANY, priority 2013, dated 2017).

How the values were obtained:
Type in all cases: cell-based
[1] = system: Klebsiella pneumonia; assay: MIC against Gram-negative bacteria: Klebsiella pneumonia; details: 5×10^5 CFU/mL; for MIC against K. pneumonia: Klebsiella pneumonia
Method: (§1) 1. Gram-negative bacteria, such as E. coli BL21, Pseudomonas aeruginosa, Klebsiella pneumonia, Enterobacter cloacae, Aeromonas hydrophila, Citrobacter diversus, Moraxella catarrhalis, Proteus mirabilis, Proteus vulgaris, Serratia marcescens, etc were streaked on solid LB medium and cultured respectively. Then, typical clones were picked, inoculated into common liquid LB medium respectively, and cultured at 37° C. with shaking at 185 rpm until the McFarland specific turbidity was 0.5. The bacterial culture of each of Gram-negative bacteria was centrifuged at 4000×g for 3 min, the supernatant was discarded, and the thalli were resuspended with fresh LB medium.
(§2) 2. The above-mentioned bacterial suspensions were diluted and inoculated into 96-well plates with the final concentration of the bacterial suspension being 5×10^5 CFU/mL per well.
(§3) 3. Each of the purified human-originated EGF domain proteins (PRT1 to PRT1498 in Table 1) was added to each of the above wells and subjected to two-fold serial dilution in concentration. Three parallel wells were set up for each concentration in the gradient.
(§4) 4. The above-mentioned 96-well plates were placed and cultured at 37° C. in shaking incubator shaking at 175 rpm. […] The minimal inhibitory concentration MIC is defined as the lowest concentration of the recombinant protein at which there is no growth of the bacteria.

[2] = system: Serratia marcescens; assay: MIC against Gram-negative bacteria: Serratia marcescens; details: 5×10^5 CFU/mL; for MIC against S. marcescens: Serratia marcescens
Method: as §1, §2, §3, §4

[3] = system: E. coli DH5α; assay: Antibacterial activity: MIC and growth curve against E. coli DH5α in 96-well plate; details: minimal inhibitory concentration against E. coli DH5α; 96-well plate, 5×10^5 CFU/mL, 37° C., judged after 8 h
Method: 1. E. coli DH5α was exemplified. E. coli DH5α was streaked and cultured on LB solid medium. Then, a typical clone was picked and inoculated into common LB liquid medium, cultured at 37° C. with shaking at 185 rpm until the logarithmic growth phase was reached (OD600 of about 0.5). The bacterial culture was centrifuged at 4000×g for 3 min, the supernatant was discarded, and the thalli were resuspended with fresh LB medium.
2. The above-mentioned bacterial suspension was diluted and inoculated into a 96-well plate with the total volume of 100 μL per well and a bacterial count of 5×10^5 CFU/mL.
3. The recombinant protein hF VII-EGF1 was added to the above-mentioned wells with the final protein concentration in the well of the highest protein concentration being 50 μg/mL. Basing on this final concentration, a two-fold serial dilution was performed till a protein concentration gradient consisting of 50, 25, and 12.5 μg/mL was set up. Three parallel wells were set up for each concentration in the gradient.
as §4, with “plate was” for “plates were”, “rpm. Samples were taken every 30 min, the absorbance values were determined at 600 nm wavelength under a ultra violet spectrophotometer, and an inhibition curve was plotted.” for “rpm.”
According to the experimental procedures in Example 14, the minimal inhibitory concentrations (MIC, μg/mL) of the other human-originated EGF domain proteins (PRT2 to PRT1498 in Table 1) for E. coli DH5α were determined.

[4] = system: E. coli BL21; assay: MIC against Gram-negative bacteria: E. coli BL21; details: 5×10^5 CFU/mL
Method: as §1, §2, §3, §4

[5] = system: Pseudomonas aeruginosa; assay: MIC against Gram-negative bacteria: Pseudomonas aeruginosa; details: 5×10^5 CFU/mL; for MIC against P. aeruginosa: Pseudomonas aeruginosa
Method: as §1, §2, §3, §4

[6] = system: Citrobacter diversus; assay: MIC against Gram-negative bacteria: Citrobacter diversus; details: 5×10^5 CFU/mL; for MIC against C. diversus: Citrobacter diversus
Method: as §1, §2, §3, §4

[7] = system: Proteus mirabilis; assay: MIC against Gram-negative bacteria: Proteus mirabilis; details: 5×10^5 CFU/mL; for MIC against P. mirabilis: Proteus mirabilis
Method: as §1, §2, §3, §4

[8] = system: Moraxella catarrhalis; assay: MIC against Gram-negative bacteria: Moraxella catarrhalis; details: 5×10^5 CFU/mL; for MIC against M. catarrhalis: Moraxella catarrhalis
Method: as §1, §2, §3, §4

[9] = system: Aeromonas hydrophila; assay: MIC against Gram-negative bacteria: Aeromonas hydrophila; details: 5×10^5 CFU/mL; for MIC against A. hydrophila: Aeromonas hydrophila
Method: as §1, §2, §3, §4

[10] = system: Enterobacter cloacae; assay: MIC against Gram-negative bacteria: Enterobacter cloacae; details: 5×10^5 CFU/mL; for MIC against E. cloacae: Enterobacter cloacae
Method: as §1, §2, §3, §4

[11] = system: Proteus vulgaris; assay: MIC against Gram-negative bacteria: Proteus vulgaris; details: 5×10^5 CFU/mL; for MIC against P. vulgaris: Proteus vulgaris
Method: as §1, §2, §3, §4

[12] = E. coli BL21, 10 h cultivation at 37° C.
[13] = 10 h cultivation at 37° C., two-fold serial dilution

Substance: PRT1295 (RTSPCDNFDCQNGAQCIVRINEPICQCLPGYQGEKCE; listed as Homo sapiens)
- MIC against K. pneumonia ([1]; 96-well plate, 37° C., 10 h): 50 µg/mL
- MIC against S. marcescens ([2]; 96-well plate, 37° C., 10 h): 12.5 µg/mL
- MIC [3]: 12.5 µg/mL
- MIC against E. coli BL21 ([4]; E. coli BL21, 96-well plate, 37° C., 10 h): 50 µg/mL
- MIC against P. aeruginosa ([5]; 96-well plate, 37° C., 10 h): 12.5 µg/mL
- MIC against C. diversus ([6]; 96-well plate, 37° C., 10 h): 12.5 µg/mL
- MIC against P. mirabilis ([7]; 96-well plate, 37° C., 10 h): 12.5 µg/mL
- MIC against M. catarrhalis ([8]; 96-well plate, 37° C., 10 h): 50 µg/mL
- MIC against A. hydrophila ([9]; 96-well plate, 37° C., 10 h): 50 µg/mL
- MIC against E. cloacae ([10]; 96-well plate, 37° C., 10 h): 12.5 µg/mL
- MIC against P. vulgaris ([11]; 96-well plate, 37° C., 10 h): 50 µg/mL

Substance: PRT160 (KIDYCILDPCRNGATCISSLSGFTCQCPEGYFGSACE; listed as Homo sapiens)
- MIC (μg/mL) K. pneumonia ([1]; K. pneumonia, 10 h cultivation at 37° C.): 25 µg/mL
- MIC (μg/mL) S. marcescens ([2]; S. marcescens, 10 h cultivation at 37° C.): 12.5 µg/mL
- MIC [3]: 12.5 µg/mL
- MIC (μg/mL) E. coli BL21 [4, 12]: 25 µg/mL
- MIC (μg/mL) P. aeruginosa ([5]; P. aeruginosa, 10 h cultivation at 37° C.): 12.5 µg/mL
- MIC (μg/mL) C. diversus ([6]; C. diversus, 10 h cultivation at 37° C.): 12.5 µg/mL
- MIC (μg/mL) P. mirabilis ([7]; P. mirabilis, 10 h cultivation at 37° C.): 12.5 µg/mL
- MIC (μg/mL) M. catarrhalis ([8]; M. catarrhalis, 10 h cultivation at 37° C.): 25 µg/mL
- MIC (μg/mL) A. hydrophila ([9]; A. hydrophila, 10 h cultivation at 37° C.): 25 µg/mL
- MIC (μg/mL) E. cloacae ([10]; E. cloacae, 10 h cultivation at 37° C.): 25 µg/mL
- MIC (μg/mL) P. vulgaris ([11]; P. vulgaris, 10 h cultivation at 37° C.): 25 µg/mL

Substance: PRT1089 (ANPCCSHPCQNRGVCMSVGFDQYKCDCTRTGFYGENCS; listed as Homo sapiens)
- MIC K. pneumonia [1, 13]: 25 µg/mL
- MIC S. marcescens [2, 13]: 25 µg/mL
- MIC [3]: 50 µg/mL
- MIC E. coli BL21 [4, 13]: 25 µg/mL
- MIC P. aeruginosa [5, 13]: 50 µg/mL
- MIC C. diversus [6, 13]: 25 µg/mL
- MIC P. mirabilis [7, 13]: 25 µg/mL
- MIC M. catarrhalis [8, 13]: 12.5 µg/mL
- MIC A. hydrophila [9, 13]: 50 µg/mL
- MIC E. cloacae [10, 13]: 12.5 µg/mL
- MIC P. vulgaris [11, 13]: 50 µg/mL

Substance: PRT1448 (ACREGRFGQSCQEQCPGISGCRGLTFCLPDPYGCSCGSGWRGSQCQ; listed as Homo sapiens)
- MIC against K. pneumonia ([1]; 10 h cultivation at 37° C.): 25 µg/mL
- MIC against S. marcescens ([2]; 10 h cultivation at 37° C.): 25 µg/mL
- MIC [3]: 25 µg/mL
- MIC against E. coli BL21 [4, 12]: 50 µg/mL
- MIC against P. aeruginosa ([5]; 10 h cultivation at 37° C.): 12.5 µg/mL
- MIC against C. diversus ([6]; 10 h cultivation at 37° C.): 25 µg/mL
- MIC against P. mirabilis ([7]; 10 h cultivation at 37° C.): 25 µg/mL
- MIC against M. catarrhalis ([8]; 10 h cultivation at 37° C.): 50 µg/mL
- MIC against A. hydrophila ([9]; 10 h cultivation at 37° C.): 12.5 µg/mL
- MIC against E. cloacae ([10]; 10 h cultivation at 37° C.): 50 µg/mL
- MIC against P. vulgaris ([11]; 10 h cultivation at 37° C.): 12.5 µg/mL

Substance: PRT616 (CDCNGKSRQCIFDRELHRQTGNGFRCLNCNDNTDGIHCEKCKNGFYRHRERDRCLP; listed as Homo sapiens)
- MIC K. pneumonia ([1]; 96-well plate, 37° C., 10 h): 50 µg/mL
- MIC S. marcescens ([2]; 96-well plate, 37° C., 10 h): 12.5 µg/mL
- MIC [3]: 25 µg/mL
- MIC E. coli BL21 ([4]; 96-well plate, 37° C., 10 h): 12.5 µg/mL
- MIC P. aeruginosa ([5]; 96-well plate, 37° C., 10 h): 25 µg/mL
- MIC C. diversus ([6]; 96-well plate, 37° C., 10 h): 12.5 µg/mL
- MIC P. mirabilis ([7]; 96-well plate, 37° C., 10 h): 12.5 µg/mL
- MIC M. catarrhalis ([8]; 96-well plate, 37° C., 10 h): 25 µg/mL
- MIC A. hydrophila ([9]; 96-well plate, 37° C., 10 h): 25 µg/mL
- MIC E. cloacae ([10]; 96-well plate, 37° C., 10 h): 12.5 µg/mL
- MIC P. vulgaris ([11]; 96-well plate, 37° C., 10 h): 25 µg/mL
